Source: US12285407B2, “Bis-indolylmethane derivatives and uses thereof” (The University of The West Indies, priority 2018, dated 2025)

Columns and labels:
MRSA = assay: Adjuvant broth microdilution (antibiotic MIC with SP-BIM at 50 μg/mL); type: cell-based, Staphylococcus aureus
Streptococcus pneumoniae [1] = assay: as above; type: cell-based; conditions: Streptococcus pneumoniae, read-out: MIC of antibiotic, No compound
Bacillus cereus [2] = assay: as above; type: cell-based; conditions: antibiotic alone, Table 9
Enterococcus faecalis = assay: as above; type: cell-based; conditions: antibiotic alone
Pseudomonas aeruginosa = assay: as above; type: cell-based; conditions: antibiotic alone
Enterobacter cloacae = assay: as above; type: cell-based; conditions: antibiotic alone
Escherichia coli O157:H7 = type: cell-based; conditions: antibiotic alone, no SP-BIM
Staphylococcus aureus = assay: Checkerboard synergy (FICI) of antibiotics with SP-BIM; type: cell-based; conditions: Staphylococcus aureus
Streptococcus pneumoniae [3] = assay: as above; type: cell-based
Bacillus cereus [4] = assay: as above; type: cell-based
Enterococcus faecium = assay: as above; type: cell-based; conditions: Enterococcus faecium
Klebsiella pneumoniae = assay: as above; type: cell-based
MRSA HS 10132 = assay: Systemic lethal MRSA infection in mice (survival); type: in vivo; conditions: vancomycin only
Escherichia coli = assay: Checkerboard synergy (FICI) of antibiotics with SP-BIM; set-up: MIC SP-BIM 13 only / MIC in combination: Antibiotic: unit not given beside the values
Candida albicans = assay: as above; set-up: MIC SP-BIM 13 only / MIC in combination: Antibiotic / MIC antibiotic only: unit not given beside the values
[5] = 24 h, read-out: MIC antibiotic only
[6] = SP-BIM 9 in combination with the labelled antibiotic
[7] = SP-BIM 13 in combination with the labelled antibiotic
[8] = antibiotic alone, SP-BIM 13 checkerboard
[9] = antibiotic in combination with SP-BIM 9
[10] = antibiotic in combination with SP-BIM 13
[11] = Streptococcus pneumonia (title: Streptococcus pyogenes), antibiotic + SP-BIM 9
[12] = Streptococcus pneumoniae, antibiotic + SP-BIM 13
[13] = MIC of the antibiotic in combination with SP-BIM 13

SMILES: CN[C@H](CC(C)C)C(=O)N[C@H]1C(=O)N[C@@H](CC(N)=O)C(=O)N[C@H]2C(=O)N[C@H]3C(=O)N[C@H](C(=O)N[C@H](C(=O)O)c4cc(O)cc(O)c4-c4cc3ccc4O)[C@H](O)c3ccc(c(Cl)c3)Oc3cc2cc(c3O[C@@H]2O[C@H](CO)[C@@H](O)[C@H](O)[C@H]2O[C@H]2C[C@](C)(N)[C@H](O)[C@H](C)O2)Oc2ccc(cc2Cl)[C@H]1O [Vancomycin, vancomycin]
- MIC (MRSA; Staphylococcus aureus, read-out: MIC of antibiotic, No compound): 4 µg/mL
- MIC of antibiotic, No Compound (MRSA; antibiotic alone, Table 8 (series SP-BIMs 21-29)): 2 µg/mL
- MIC (Streptococcus pneumoniae [1]): 1 µg/mL
- MIC of antibiotic, No Compound (Bacillus cereus [2]): 4 µg/mL
- MIC of antibiotic, No Compound (Enterococcus faecalis): 250 µg/mL
- MIC of antibiotic, No Compound (Pseudomonas aeruginosa): >250 µg/mL
- MIC of antibiotic, No Compound (Enterobacter cloacae): >250 µg/mL
- MIC of antibiotic, No Compound (Escherichia coli O157:H7): 250 µg/mL
- MIC (Staphylococcus aureus; [5]): 2 µg/mL
- FIC of SP-BIM 9 (Staphylococcus aureus; [6]): 0.02
- FIC of SP-BIM 13 (Staphylococcus aureus; [7]): 0.3
- Interpretation (Staphylococcus aureus; antibiotic + SP-BIM 9): Synergy (Synergy: FICI≤0.5)
- Σ FIC (Staphylococcus aureus; antibiotic + SP-BIM 9): <0.27
- Interpretation (Staphylococcus aureus; antibiotic + SP-BIM 13): Synergy (Synergy: FICI≤0.5)
- Σ FIC (Staphylococcus aureus; antibiotic + SP-BIM 13): 0.4
- MIC antibiotic only (Staphylococcus aureus; [8]): 2 µg/mL
- MIC in combination, Antibiotic (Staphylococcus aureus; [9]): 0.5 µg/mL
- MIC in combination, Antibiotic (Staphylococcus aureus; [10]): 0.25 µg/mL
- FIC of antibiotic (Staphylococcus aureus; in combination with SP-BIM 9): 0.25
- FIC of antibiotic (Staphylococcus aureus; in combination with SP-BIM 13): 0.1
- FIC of SP-BIM 9 (Streptococcus pneumoniae [3]; Streptococcus pneumonia (title: Streptococcus pyogenes), SP-BIM 9 in combination with the labelled antibiotic): 0.26
- Interpretation (Streptococcus pneumoniae [3]; [11]): Synergy (Synergy: FICI≤0.5)
- Σ FIC (Streptococcus pneumoniae [3]; [11]): <0.36
- MIC in combination, Antibiotic (Streptococcus pneumoniae [3]; Streptococcus pneumonia (title: Streptococcus pyogenes), antibiotic in combination with SP-BIM 9): 0.2 µg/mL
- FIC of antibiotic (Streptococcus pneumoniae [3]; Streptococcus pneumonia (title: Streptococcus pyogenes), in combination with SP-BIM 9): 0.10
- MIC (Streptococcus pneumoniae [3]; Streptococcus pneumoniae, 24 h, read-out: MIC antibiotic only): 2 µg/mL
- FIC of SP-BIM 13 (Streptococcus pneumoniae [3]; Streptococcus pneumoniae, SP-BIM 13 in combination with the labelled antibiotic): 0.1
- Interpretation (Streptococcus pneumoniae [3]; [12]): Synergy (Synergy: FICI≤0.5)
- Σ FIC (Streptococcus pneumoniae [3]; [12]): 0.3
- MIC antibiotic only (Streptococcus pneumoniae [3]; Streptococcus pneumoniae, antibiotic alone, SP-BIM 13 checkerboard): 2 µg/mL
- MIC in combination, Antibiotic (Streptococcus pneumoniae [3]; Streptococcus pneumoniae, antibiotic in combination with SP-BIM 13): 0.5 µg/mL
- FIC of antibiotic (Streptococcus pneumoniae [3]; Streptococcus pneumoniae, in combination with SP-BIM 13): 0.3
- MIC (Bacillus cereus [4]; [5]): 2 µg/mL
- FIC of SP-BIM 13 (Bacillus cereus [4]; [7]): 0.0
- Interpretation (Bacillus cereus [4]; antibiotic + SP-BIM 13): Synergy (Synergy: FICI≤0.5)
- Σ FIC (Bacillus cereus [4]; antibiotic + SP-BIM 13): 0.1
- MIC antibiotic only (Bacillus cereus [4]; [8]): 2 µg/mL
- MIC in combination, Antibiotic (Bacillus cereus [4]; [10]): 0.25 µg/mL
- FIC of antibiotic (Bacillus cereus [4]; in combination with SP-BIM 13): 0.13
- MIC (Enterococcus faecium; [5]): 16 µg/mL
- MIC in combination, SP-BIM 9 (Enterococcus faecium; SP-BIM 9 concentration in combination with the labelled antibiotic): 64 µg/mL
- FIC of SP-BIM 9 (Enterococcus faecium; [6]): 0.3
- FIC of SP-BIM 13 (Enterococcus faecium; [7]): 0.5
- Interpretation (Enterococcus faecium; antibiotic + SP-BIM 9): Synergy (Synergy: FICI≤0.5)
- Σ FIC (Enterococcus faecium; antibiotic + SP-BIM 9): ≤0.31
- Interpretation (Enterococcus faecium; antibiotic + SP-BIM 13): Additive (Additive: FICI>0.5-1.0)
- Σ FIC (Enterococcus faecium; antibiotic + SP-BIM 13): <1.0
- MIC antibiotic only (Enterococcus faecium; [8]): 16 µg/mL
- MIC in combination, Antibiotic (Enterococcus faecium; [9]): 0.2 µg/mL
- MIC in combination, Antibiotic (Enterococcus faecium; [10]): 8 µg/mL
- FIC of antibiotic (Enterococcus faecium; in combination with SP-BIM 9): 0.013
- FIC of antibiotic (Enterococcus faecium; in combination with SP-BIM 13): 0.5
- MIC (Klebsiella pneumoniae; [5]): 125 µg/mL
- FIC of SP-BIM 9 (Klebsiella pneumoniae; [6]): 1
- FIC of SP-BIM 13 (Klebsiella pneumoniae; [7]): 1.0
- Interpretation (Klebsiella pneumoniae; antibiotic + SP-BIM 9): Indifferent (Indifferent: FICI>1.0-4.0)
- Σ FIC (Klebsiella pneumoniae; antibiotic + SP-BIM 9): <2.0
- Interpretation (Klebsiella pneumoniae; antibiotic + SP-BIM 13): Indifferent (Indifferent: FICI>1.0-4.0)
- Σ FIC (Klebsiella pneumoniae; antibiotic + SP-BIM 13): <2.0
- MIC antibiotic only (Klebsiella pneumoniae; [8]): 125 µg/mL
- MIC in combination, Antibiotic (Klebsiella pneumoniae; [9]): 125 µg/mL
- MIC in combination, Antibiotic (Klebsiella pneumoniae; [10]): 125 µg/mL
- FIC of antibiotic (Klebsiella pneumoniae; in combination with SP-BIM 9): 1
- FIC of antibiotic (Klebsiella pneumoniae; in combination with SP-BIM 13): 1.0
- survival rate (MRSA HS 10132): similarly high survival rate
- MIC (Escherichia coli; [5]): 125 µg/mL
- MIC in combination: Antibiotic (Escherichia coli; [13]): 125
- FIC of SP-BIM 9 (Escherichia coli; [6]): 1
- FIC of SP-BIM 13 (Escherichia coli; [7]): 1.0
- Interpretation (Escherichia coli; antibiotic + SP-BIM 9): Indifferent (Indifferent: FICI>1.0-4.0)
- Σ FIC (Escherichia coli; antibiotic + SP-BIM 9): <2.0
- Interpretation (Escherichia coli; antibiotic + SP-BIM 13): Indifferent (Indifferent: FICI>1.0-4.0)
- Σ FIC (Escherichia coli; antibiotic + SP-BIM 13): <2.0
- MIC antibiotic only (Escherichia coli; antibiotic alone): 125
- MIC in combination, Antibiotic (Escherichia coli; [9]): 125 µg/mL
- FIC of antibiotic (Escherichia coli; combination with SP-BIM 13): 1.0
- FIC of antibiotic (Escherichia coli; in combination with SP-BIM 9): 1
- MIC (Candida albicans; [5]): 16 µg/mL
- MIC in combination: Antibiotic (Candida albicans; [13]): 8
- FIC of SP-BIM 13 (Candida albicans; [7]): 0.1
- Interpretation (Candida albicans; antibiotic + SP-BIM 13): Additive (Additive: FICI>0.5-1.0)
- Σ FIC (Candida albicans; antibiotic + SP-BIM 13): <0.6
- FIC of antibiotic (Candida albicans; combination with SP-BIM 13): 0.5
